# Experimental data as given in US20230416225A1, “DIAMINOPYRIMIDINE CARBOXAMIDE INHIBITORS OF HPK1” (MERCK SHARP & DOHME LLC, priority 2020, published 2023).
# Target: T1, Human HPK1, catalytic domain (Homo sapiens, UniProt Q92918)
# T1 construct: purchased Carna
# T1 sequence (Q92918 1-346): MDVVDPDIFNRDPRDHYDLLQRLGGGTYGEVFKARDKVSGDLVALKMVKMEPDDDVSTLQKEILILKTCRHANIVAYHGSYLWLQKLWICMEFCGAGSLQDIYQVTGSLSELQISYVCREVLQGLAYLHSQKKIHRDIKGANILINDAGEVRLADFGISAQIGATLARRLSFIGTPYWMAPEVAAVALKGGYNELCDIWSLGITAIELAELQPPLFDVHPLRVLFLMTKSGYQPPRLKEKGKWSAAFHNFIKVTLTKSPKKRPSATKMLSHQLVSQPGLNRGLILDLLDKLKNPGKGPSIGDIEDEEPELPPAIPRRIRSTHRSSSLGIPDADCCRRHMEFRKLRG
# Test: HPK1-SLP76 TR-FRET assay
# Type: biochemical
# Settings: 75 pM HPK1, 10 uM ATP, 10 nM SLP76, 30 min compound pre-incubation
row,SMILES,IC50
1,"NC(=O)c1cnc(Nc2ccc3c(c2)COC3=O)nc1N[C@H](CO)c1ccccc1 [Example 26-44, 4-{[(1S)-2-hydroxy-1-phenylethyl]amino}-2-[(1-oxo-1,3-dihydro-2-benzofuran-5-yl)amino]pyrimidine-5-carboxamide]",92.1 nM
2,"COc1cc2c(cc1Nc1ncc(C(N)=O)c(N[C@@H]3CCCc4cc(F)ccc43)n1)CN(C)CC2 [Example 26-46, 4-{[(1R)-6-fluoro-1,2,3,4-tetrahydronaphthalen-1-yl]amino}-2-[(6-methoxy-2-methyl-1,2,3,4-tetrahydroisoquinolin-7-yl)amino]pyrimidine-5-carboxamide]",29.7 nM
3,"COc1cc2c(cc1Nc1ncc(C(N)=O)c(N[C@H]3CCCc4cc(F)ccc43)n1)CN(C)CC2 [Example 26-47, 4-{[(1S)-6-fluoro-1,2,3,4-tetrahydronaphthalen-1-yl]amino}-2-[(6-methoxy-2-methyl-1,2,3,4-tetrahydroisoquinolin-7-yl)amino]pyrimidine-5-carboxamide]",3.01 nM
4,"COc1cc2c(cc1Nc1ncc(C(N)=O)c(N[C@H](CO)C3CCCCC3)n1)CN(C)CC2 [Example 26-48, 4-{[(1S)-1-cyclohexyl-2-hydroxyethyl]amino}-2-[(6-methoxy-2-methyl-1,2,3,4-tetrahydroisoquinolin-7-yl)amino]pyrimidine-5-carboxamide]",22.8 nM
5,"NC(=O)c1cnc(Nc2cnn(C3CCNCC3)c2)nc1NC1CCc2cc(F)c(F)cc21 (stereo not shown) [Example 26-50, 4-[(5,6-difluoro-2,3-dihydro-1H-inden-1-yl)amino]-2-{[1-(piperidin-4-yl)-1H-pyrazol-4-yl]amino}pyrimidine-5-carboxamide]",40.6 nM
6,"COc1cc2c(cc1Nc1ncc(C(N)=O)c(NCc3nccs3)n1)CN(C)CC2 [Example 26-60, 2-[(6-methoxy-2-methyl-1,2,3,4-tetrahydroisoquinolin-7-yl)amino]-4-{[(1,3-thiazol-2-yl)methyl]amino}pyrimidine-5-carboxamide]",4.89 nM
7,"COc1cc2c(cc1Nc1ncc(C(N)=O)c(NCc3ccc(C(F)(F)F)cc3)n1)CN(C)CC2 [Example 26-61, 2-[(6-methoxy-2-methyl-1,2,3,4-tetrahydroisoquinolin-7-yl)amino]-4-({[4-(trifluoromethyl)phenyl]methyl}amino)pyrimidine-5-carboxamide]",146 nM
8,"COc1cc2c(cc1Nc1ncc(C(N)=O)c(N[C@H]3c4ccccc4C[C@H]3CO)n1)CN(C)CC2 [Example 26-62, 4-{[(1R,2R)-2-(hydroxymethyl)-2,3-dihydro-1H-inden-1-yl]amino}-2-[(6-methoxy-2-methyl-1,2,3,4-tetrahydroisoquinolin-7-yl)amino]pyrimidine-5-carboxamide]",15.6 nM
9,"COc1cc2c(cc1Nc1ncc(C(N)=O)c(N[C@@H]3c4ccccc4C[C@@H]3O)n1)CN(C)CC2 [Example 26-64, 4-{[(1R,2S)-2-hydroxy-2,3-dihydro-1H-inden-1-yl]amino}-2-[(6-methoxy-2-methyl-1,2,3,4-tetrahydroisoquinolin-7-yl)amino]pyrimidine-5-carboxamide]",0.86 nM
10,"COc1cc2c(cc1Nc1ncc(C(N)=O)c(N[C@@H]3c4ccccc4C[C@H]3O)n1)CN(C)CC2 [Example 26-65, 4-{[(1R,2R)-2-hydroxy-2,3-dihydro-1H-inden-1-yl]amino}-2-[(6-methoxy-2-methyl-1,2,3,4-tetrahydroisoquinolin-7-yl)amino]pyrimidine-5-carboxamide]",17.8 nM
11,"COc1cc2c(cc1Nc1ncc(C(N)=O)c(N[C@@H]3CCc4ccccc43)n1)CN(C)CC2 [Example 26-67, 4-{[(1R)-2,3-dihydro-1H-inden-1-yl]amino}-2-[(6-methoxy-2-methyl-1,2,3,4-tetrahydroisoquinolin-7-yl)amino]pyrimidine-5-carboxamide]",4.74 nM

# The remaining lines, values ahead:
row,IC50,SMILES
1,0.51 nM,"COc1cc2c(cc1Nc1ncc(C(N)=O)c(NCc3c(F)ccc(F)c3F)n1)CN(C)CC2 [Example 26-45, 2-[(6-methoxy-2-methyl-1,2,3,4-tetrahydroisoquinolin-7-yl)amino]-4-{[(2,3,6-trifluorophenyl)methyl]amino}pyrimidine-5-carboxamide]"
2,78.8 nM,"Cn1cc(Nc2ncc(C(N)=O)c(N[C@H](CO)C3CCCCC3)n2)cn1 [Example 26-49, 4-{[(1S)-1-cyclohexyl-2-hydroxyethyl]amino}-2-[(1-methyl-1H-pyrazol-4-yl)amino]pyrimidine-5-carboxamide]"
3,0.23 nM,"NC(=O)c1cnc(Nc2ccc3c(c2)CNCC3)nc1NC1CCc2cc(F)c(F)cc21 (stereo not shown) [Example 26-53, 4-[(5,6-difluoro-2,3-dihydro-1H-inden-1-yl)amino]-2-[(1,2,3,4-tetrahydroisoquinolin-7-yl)amino]pyrimidine-5-carboxamide]"
4,0.97 nM,"CN1CCc2cc(F)c(Nc3ncc(C(N)=O)c(NC4CCc5cc(F)c(F)cc54)n3)cc2C1 (stereo not shown) [Example 26-54, 4-[(5,6-difluoro-2,3-dihydro-1H-inden-1-yl)amino]-2-[(6-fluoro-2-methyl-1,2,3,4-tetrahydroisoquinolin-7-yl)amino]pyrimidine-5-carboxamide]"
5,224 nM,"COc1cc2c(cc1Nc1ncc(C(N)=O)c(NCc3ccncc3)n1)CN(C)CC2 [Example 26-55, 2-[(6-methoxy-2-methyl-1,2,3,4-tetrahydroisoquinolin-7-yl)amino]-4-{[(pyridin-4-yl)methyl]amino}pyrimidine-5-carboxamide]"
6,777 nM,"COc1cc2c(cc1Nc1ncc(C(N)=O)c(NCc3cnc4ccccn34)n1)CN(C)CC2 [Example 26-56, 4-{[(imidazo[1,2-a]pyridin-3-yl)methyl]amino}-2-[(6-methoxy-2-methyl-1,2,3,4-tetrahydroisoquinolin-7-yl)amino]pyrimidine-5-carboxamide]"
7,3.19 nM,"COc1cc2c(cc1Nc1ncc(C(N)=O)c(NCc3ccccc3O)n1)CN(C)CC2 [Example 26-57, 4-{[(2-hydroxyphenyl)methyl]amino}-2-[(6-methoxy-2-methyl-1,2,3,4-tetrahydroisoquinolin-7-yl)amino]pyrimidine-5-carboxamide]"
8,9.83 nM,"COc1cc2c(cc1Nc1ncc(C(N)=O)c(NCc3cccc(C#N)c3)n1)CN(C)CC2 [Example 26-58, 4-{[(3-cyanophenyl)methyl]amino}-2-[(6-methoxy-2-methyl-1,2,3,4-tetrahydroisoquinolin-7-yl)amino]pyrimidine-5-carboxamide]"
9,48.3 nM,"COc1cc2c(cc1Nc1ncc(C(N)=O)c(NCc3ccc(C#N)cc3)n1)CN(C)CC2 [Example 26-59, 4-{[(4-cyanophenyl)methyl]amino}-2-[(6-methoxy-2-methyl-1,2,3,4-tetrahydroisoquinolin-7-yl)amino]pyrimidine-5-carboxamide]"
10,109 nM,"COc1cc2c(cc1Nc1ncc(C(N)=O)c(N[C@H]3c4ccccc4C[C@H]3O)n1)CN(C)CC2 [Example 26-63, 4-{[(1S,2R)-2-hydroxy-2,3-dihydro-1H-inden-1-yl]amino}-2-[(6-methoxy-2-methyl-1,2,3,4-tetrahydroisoquinolin-7-yl)amino]pyrimidine-5-carboxamide]"
11,193 nM,"COc1cc2c(cc1Nc1ncc(C(N)=O)c(N[C@H]3c4ccccc4C[C@@H]3O)n1)CN(C)CC2 [Example 26-66, 4-{[(1S,2S)-2-hydroxy-2,3-dihydro-1H-inden-1-yl]amino}-2-[(6-methoxy-2-methyl-1,2,3,4-tetrahydroisoquinolin-7-yl)amino]pyrimidine-5-carboxamide]"
